According to the OligoGym collection:
Where “and” joins values, the source holds several entries; their conditions need not be identical. Identical values can stand only once. HELM strings list units from the 5' end as sugar, base in round brackets, then linkage (d deoxyribose, r ribose, m 2'-O-methyl, p phosphodiester). Methylation of C is not given here. [moe] = 2'-O-(2-methoxyethyl) (MOE); [cEt] = constrained ethyl (cEt); [sp] = phosphorothioate linkage

Molecular target: HBV
Details: ASO

RNA1{[moe](A)[sp].[moe](G)[sp].[moe](A)[sp].[moe](G)[sp].[moe](G)[sp].d(T)[sp].d(G)[sp].d(A)[sp].d(A)[sp].d(G)[sp].d(C)[sp].d(G)[sp].d(A)[sp].d(A)[sp].[moe](G)[sp].[moe](T)}$$$$V2.0
target mRNA inhibition (HepG2, 0.07 µM): 55% and 52%

RNA1{[moe](A)[sp].[moe](G)[sp].[moe](A)[sp].[moe](T)[sp].[moe](G)[sp].d(A)[sp].d(G)[sp].d(G)[sp].d(C)[sp].d(A)[sp].d(T)[sp].d(A)[sp].d(G)[sp].d(C)[sp].[moe](A)[sp].[moe](G)[sp].[moe](C)}$$$$V2.0
target mRNA inhibition (HepG2, 0.07 µM): 41% and 34%

RNA1{[moe](A)[sp].[moe](G)[sp].[moe](A)[sp].d(G)[sp].d(G)[sp].d(T)[sp].d(G)[sp].d(A)[sp].d(A)[sp].d(G)[sp].d(C)[sp].d(G)[sp].[moe](A)[sp].[moe](A)[sp].[moe](G)[sp].[moe](T)}$$$$V2.0
target mRNA inhibition (HepG2, 0.07 µM): 51% and 44%

RNA1{[moe](A)[sp].[moe](G)[sp].[moe](C)[sp].d(G)[sp].d(A)[sp].d(A)[sp].d(G)[sp].d(T)[sp].d(G)[sp].d(C)[sp].d(A)[sp].d(C)[sp].[moe](A)[sp].[moe](C)[sp].[moe](G)[sp].[moe](G)}$$$$V2.0
target mRNA inhibition (HepG2, 0.0092593 µM): 11%
target mRNA inhibition (HepG2, 0.0277778 µM): 34%
target mRNA inhibition (HepG2, 0.07 µM): 79% and 70%
target mRNA inhibition (HepG2, 0.0833333 µM): 66%
target mRNA inhibition (HepG2, 0.25 µM): 87%

RNA1{[moe](A)[sp].[moe](G)[sp].[moe](G)[sp].[moe](A)[sp].[moe](G)[sp].d(T)[sp].d(T)[sp].d(C)[sp].d(C)[sp].d(G)[sp].d(C)[sp].d(A)[sp].d(G)[sp].d(T)[sp].[moe](A)[sp].[moe](T)}$$$$V2.0
target mRNA inhibition (HepG2, 0.07 µM): 62% and 48%

RNA1{[moe](A)[sp].[moe](G)[sp].[moe](G)[sp].[moe](C)[sp].[moe](A)[sp].d(T)[sp].d(A)[sp].d(G)[sp].d(C)[sp].d(A)[sp].d(G)[sp].d(C)[sp].d(A)[sp].d(G)[sp].[moe](G)[sp].[moe](A)[sp].[moe](T)}$$$$V2.0
target mRNA inhibition (HepG2, 0.07 µM): 61% and 56%

RNA1{[moe](A)[sp].[moe](G)[sp].[moe](G)[sp].[moe](C)[sp].[moe](A)[sp].d(T)[sp].d(A)[sp].d(G)[sp].d(C)[sp].d(A)[sp].d(G)[sp].d(C)[sp].d(A)[sp].d(G)[sp].[moe](G)[sp].[moe](A)}$$$$V2.0
target mRNA inhibition (HepG2, 0.0092593 µM): 9%
target mRNA inhibition (HepG2, 0.0277778 µM): 13%
target mRNA inhibition (HepG2, 0.07 µM): 66% and 56%
target mRNA inhibition (HepG2, 0.0833333 µM): 29%
target mRNA inhibition (HepG2, 0.25 µM): 51%

RNA1{[moe](A)[sp].[moe](G)[sp].[moe](G)[sp].[moe](T)[sp].d(G)[sp].d(A)[sp].d(A)[sp].d(G)[sp].d(C)[sp].d(G)[sp].d(A)[sp].d(A)[sp].d(G)[sp].[moe](T)[sp].[moe](G)[sp].[moe](C)[sp].[moe](A)}$$$$V2.0
target mRNA inhibition (HepG2, 0.07 µM): 58% and 56%

RNA1{[moe](A)[sp].[moe](G)[sp].[moe](G)[sp].d(A)[sp].d(G)[sp].d(T)[sp].d(T)[sp].d(C)[sp].d(C)[sp].d(G)[sp].d(C)[sp].d(A)[sp].d(G)[sp].[cEt](T)[sp].[cEt](A)[sp].[cEt](T)}$$$$V2.0
target mRNA inhibition (HepG2, 0.07 µM): 59% and 58%

RNA1{[moe](A)[sp].[moe](G)[sp].[moe](G)[sp].d(T)[sp].d(G)[sp].d(A)[sp].d(A)[sp].d(G)[sp].d(C)[sp].d(G)[sp].d(A)[sp].d(A)[sp].[moe](G)[sp].[moe](T)[sp].[moe](G)[sp].[moe](C)[sp].[moe](A)}$$$$V2.0
target mRNA inhibition (HepG2, 0.07 µM): 77% and 71%

RNA1{[moe](A)[sp].[moe](G)[sp].[moe](G)[sp].d(T)[sp].d(G)[sp].d(A)[sp].d(A)[sp].d(G)[sp].d(C)[sp].d(G)[sp].d(A)[sp].d(A)[sp].[moe](G)[sp].[moe](T)[sp].[moe](G)[sp].[moe](C)}$$$$V2.0
target mRNA inhibition (HepG2, 0.07 µM): 68% and 58%

RNA1{[moe](A)[sp].[moe](G)[sp].[moe](T)[sp].[moe](T)[sp].[moe](C)[sp].d(C)[sp].d(G)[sp].d(C)[sp].d(A)[sp].d(G)[sp].d(T)[sp].d(A)[sp].d(T)[sp].d(G)[sp].[moe](G)[sp].[moe](A)}$$$$V2.0
target mRNA inhibition (HepG2, 0.07 µM): 61% and 40%

RNA1{[moe](A)[sp].[moe](G)[sp].[moe](T)[sp].d(T)[sp].d(C)[sp].d(C)[sp].d(G)[sp].d(C)[sp].d(A)[sp].d(G)[sp].d(T)[sp].d(A)[sp].[moe](T)[sp].[moe](G)[sp].[moe](G)[sp].[moe](A)[sp].[moe](T)}$$$$V2.0
target mRNA inhibition (HepG2, 0.07 µM): 60% and 64%

RNA1{[moe](A)[sp].[moe](G)[sp].d(C)[sp].d(G)[sp].d(A)[sp].d(A)[sp].d(G)[sp].d(T)[sp].d(G)[sp].d(C)[sp].d(A)[sp].[moe](C)[sp].[moe](A)[sp].[moe](C)[sp].[moe](G)[sp].[moe](G)}$$$$V2.0
target mRNA inhibition (HepG2, 0.0092593 µM): 0%
target mRNA inhibition (HepG2, 0.0277778 µM): 30%
target mRNA inhibition (HepG2, 0.07 µM): 79% and 73%
target mRNA inhibition (HepG2, 0.0833333 µM): 72%
target mRNA inhibition (HepG2, 0.25 µM): 84%

RNA1{[moe](A)[sp].[moe](G)[sp].d(G)[sp].d(C)[sp].d(A)[sp].d(T)[sp].d(A)[sp].d(G)[sp].d(C)[sp].d(A)[sp].d(G)[sp].[moe](C)[sp].[moe](A)[sp].[moe](G)[sp].[moe](G)[sp].[moe](A)}$$$$V2.0
target mRNA inhibition (HepG2, 0.07 µM): 57% and 51%

RNA1{[moe](A)[sp].[moe](T)[sp].[moe](G)[sp].[moe](A)[sp].[moe](G)[sp].d(G)[sp].d(C)[sp].d(A)[sp].d(T)[sp].d(A)[sp].d(G)[sp].d(C)[sp].d(A)[sp].d(G)[sp].[moe](C)[sp].[moe](A)[sp].[moe](G)}$$$$V2.0
target mRNA inhibition (HepG2, 0.07 µM): 50% and 44%

RNA1{[moe](A)[sp].[moe](T)[sp].[moe](G)[sp].[moe](A)[sp].[moe](G)[sp].d(G)[sp].d(C)[sp].d(A)[sp].d(T)[sp].d(A)[sp].d(G)[sp].d(C)[sp].d(A)[sp].d(G)[sp].[moe](C)[sp].[moe](A)}$$$$V2.0
target mRNA inhibition (HepG2, 0.07 µM): 52% and 56%

RNA1{[moe](A)[sp].[moe](T)[sp].[moe](G)[sp].d(A)[sp].d(G)[sp].d(G)[sp].d(C)[sp].d(A)[sp].d(T)[sp].d(A)[sp].d(G)[sp].d(C)[sp].[moe](A)[sp].[moe](G)[sp].[moe](C)[sp].[moe](A)}$$$$V2.0
target mRNA inhibition (HepG2, 0.07 µM): 53% and 44%

RNA1{[moe](A)[sp].[moe](T)[sp].[moe](T)[sp].[cEt](T)[sp].[cEt](A)[sp].d(T)[sp].d(G)[sp].d(C)[sp].d(C)[sp].d(T)[sp].d(A)[sp].d(C)[sp].[cEt](A)[sp].[cEt](G)[sp].[moe](C)[sp].[moe](C)[sp].[moe](T)}$$$$V2.0
target mRNA inhibition (HepG2, 0.009375 µM): 4%
target mRNA inhibition (HepG2, 0.01875 µM): 30%
target mRNA inhibition (HepG2, 0.0375 µM): 44%
target mRNA inhibition (HepG2, 0.075 µM): 52%
target mRNA inhibition (HepG2, 0.15 µM): 67%
target mRNA inhibition (HepG2, 0.3 µM): 76%

RNA1{[moe](A)[sp].[moe](T)[sp].[moe](T)[sp].[moe](T)[sp].[moe](A)[sp].d(T)[sp].d(G)[sp].d(C)[sp].d(C)[sp].d(T)[sp].d(A)[sp].d(C)[sp].d(A)[sp].d(G)[sp].[moe](C)[sp].[moe](C)}$$$$V2.0
target mRNA inhibition (HepG2, 0.07 µM): 47% and 41%

RNA1{[moe](A)[sp].[moe](T)[sp].[moe](T)[sp].[moe](T)[sp].d(A)[sp].d(T)[sp].d(G)[sp].d(C)[sp].d(C)[sp].d(T)[sp].d(A)[sp].d(C)[sp].d(A)[sp].[moe](G)[sp].[moe](C)[sp].[moe](C)[sp].[moe](T)}$$$$V2.0
target mRNA inhibition (HepG2, 0.07 µM): 58% and 42%

RNA1{[moe](A)[sp].[moe](T)[sp].[moe](T)[sp].d(T)[sp].d(A)[sp].d(T)[sp].d(G)[sp].d(C)[sp].d(C)[sp].d(T)[sp].d(A)[sp].d(C)[sp].[moe](A)[sp].[moe](G)[sp].[moe](C)[sp].[moe](C)}$$$$V2.0
target mRNA inhibition (HepG2, 0.07 µM): 38% and 47%

RNA1{[moe](A)[sp].[moe](T)[sp].d(G)[sp].d(A)[sp].d(G)[sp].d(G)[sp].d(C)[sp].d(A)[sp].d(T)[sp].d(A)[sp].d(G)[sp].[moe](C)[sp].[moe](A)[sp].[moe](G)[sp].[moe](C)[sp].[moe](A)}$$$$V2.0
target mRNA inhibition (HepG2, 0.07 µM): 53% and 32%

RNA1{[moe](A)[sp].[moe](T)[sp].d(T)[sp].d(T)[sp].d(A)[sp].d(T)[sp].d(G)[sp].d(C)[sp].d(C)[sp].d(T)[sp].d(A)[sp].[moe](C)[sp].[moe](A)[sp].[moe](G)[sp].[moe](C)[sp].[moe](C)[sp].[moe](T)}$$$$V2.0
target mRNA inhibition (HepG2, 0.0092593 µM): 0%
target mRNA inhibition (HepG2, 0.0277778 µM): 21%
target mRNA inhibition (HepG2, 0.07 µM): 71% and 65%
target mRNA inhibition (HepG2, 0.0833333 µM): 22%
target mRNA inhibition (HepG2, 0.25 µM): 53%

RNA1{[moe](A)[sp].[moe](T)[sp].d(T)[sp].d(T)[sp].d(A)[sp].d(T)[sp].d(G)[sp].d(C)[sp].d(C)[sp].d(T)[sp].d(A)[sp].[moe](C)[sp].[moe](A)[sp].[moe](G)[sp].[moe](C)[sp].[moe](C)}$$$$V2.0
target mRNA inhibition (HepG2, 0.07 µM): 36% and 25%

RNA1{[moe](C)[sp].[cEt](A)[sp].[cEt](C)[sp].d(T)[sp].d(A)[sp].d(G)[sp].d(T)[sp].d(A)[sp].d(A)[sp].d(A)[sp].d(C)[sp].d(T)[sp].d(G)[sp].[cEt](A)[sp].[cEt](G)[sp].[moe](C)}$$$$V2.0
target mRNA inhibition (HepG2, 0.07 µM): 73% and 71%

RNA1{[moe](C)[sp].[cEt](A)[sp].[cEt](C)[sp].d(T)[sp].d(G)[sp].d(A)[sp].d(A)[sp].d(C)[sp].d(A)[sp].d(A)[sp].d(A)[sp].d(T)[sp].d(G)[sp].[cEt](G)[sp].[cEt](C)[sp].[moe](A)}$$$$V2.0
target mRNA inhibition (HepG2, 0.07 µM): 65% and 75%

RNA1{[moe](C)[sp].[cEt](A)[sp].[cEt](G)[sp].d(C)[sp].d(A)[sp].d(A)[sp].d(A)[sp].d(C)[sp].d(A)[sp].d(C)[sp].d(T)[sp].d(T)[sp].d(G)[sp].[cEt](G)[sp].[cEt](C)[sp].[moe](A)}$$$$V2.0
target mRNA inhibition (HepG2, 0.07 µM): 62% and 61%

RNA1{[moe](C)[sp].[cEt](C)[sp].d(A)[sp].d(A)[sp].d(T)[sp].d(T)[sp].d(T)[sp].d(A)[sp].d(T)[sp].d(G)[sp].d(C)[sp].d(C)[sp].[cEt](T)[sp].[moe](A)[sp].[cEt](C)[sp].[moe](A)}$$$$V2.0
target mRNA inhibition (HepG2, 0.07 µM): 37% and 55%

RNA1{[moe](C)[sp].[cEt](C)[sp].d(A)[sp].d(C)[sp].d(T)[sp].d(G)[sp].d(A)[sp].d(A)[sp].d(C)[sp].d(A)[sp].d(A)[sp].d(A)[sp].[cEt](T)[sp].[moe](G)[sp].[cEt](G)[sp].[moe](C)}$$$$V2.0
target mRNA inhibition (HepG2, 0.07 µM): 76% and 78%
